Source: paper PMC5756575, “In Vitro Biotransformation, Safety, and Chemopreventive Action of Novel 8-Methoxy-Purine-2,6-Dione Derivatives” (Applied Biochemistry and Biotechnology, 2017)
Where two headings read alike, the source gives them in different places.

Columns and labels:
[1] = system: Salmonella typhimurium TA100; experiment: Ames mutagenicity test; type: cell-based
Protocol: From them, 0.2 mM working solutions were prepared by dilution with water. […]
(§1) In the Ames test, Salmonella typhimurium TA100 strain was used. This strain has a base-pair substitution that can be reverted by mutations at GC pairs. In addition, it contains mutations at uvrB-bio and rfa genes to eliminate excision repair mechanisms and to make the bacteria more permeable to chemicals, respectively. Finally, TA100 also includes pKM101 plasmid, which enhances both chemical and UV-induced mutagenesis via an increase in the error-prone recombinational DNA repair pathway. TA100 strain of S. typhimurium was provided by Dr. T. Nohmi (Division of Genetics and Mutagenesis, National Institute of Hygienic Sciences, Tokyo, Japan). V. harveyi and S. typhimurium bacterial cultures were maintained at 30 and 37 °C, respectively.
It causes point mutations at the genome as it induces G:C → A:T transitions in Vibrio harveyi strains and in other bacteria such as Escherichia coli and S. typhimurium. […]
S. typhimurium was cultivated in a fresh medium 12 h prior to a test. To perform mutagenicity assay, 100 μL of an overnight culture (containing approx. 1 × 10^8 to 2 × 10^8 bacteria) were inoculated along with 50 μL of a tested compound in 2 mL of top agar supplemented with traces of histidine and of biotin. Then the mixture was added over the surface of GM agar plates and was left incubating 48 h at 37 °C. Afterwards, the colonies were counted manually.

Vibrio harveyi BB7M [2] = details: 40 ng/mL; for Number of revertants per plate, Mean ± SD: mutagenicity
Protocol: (§2) From them, 0.2 mM working solutions were prepared by dilution with water. […] Working solutions were prepared by 1:100 dilution of stock solution in water, and final compound concentration assayed was 40 ng/mL.
(§3) Four Vibrio harveyi strains were used in this study: a wild-type BB7 (naturally found in the Baltic Sea) and three genetically modified strains, namely BB7M (obtained by the introduction of pAB1273 plasmid containing the genes mucA and mucB to enhance the error-prone DNA repair), BB7X (hypersensitive to UV radiation after genetic modification with Tn5TpMCS), and BB7XM (containing the two abovementioned modifications). These strains were kindly provided by Prof. G. Węgrzyn (Department of Molecular Biology, University of Gdańsk, Poland).
(§4) It causes point mutations at the genome as it induces G:C → A:T transitions in Vibrio harveyi strains and in other bacteria such as Escherichia coli and S. typhimurium. […] Next, its working solution was prepared in sterile water, being 40 ng/mL its final concentration.
(§5) To perform the V. harveyi mutagenicity test, 10 μL of a working solution of the tested compound (100 μg/mL) were added to V. harveyi bacterial culture (OD600 = 0.1) in NaCl-containing BOSS liquid medium, being 40 ng/mL the final concentration of the tested compound. […] Then, an inoculum containing 5 × 10^6 cells was added to solid BOSS agar plate supplemented with neomycin sulfate at a final concentration of 100 μg/mL. Samples were left incubating 48 h at 30 °C, and revertant colonies were counted manually.

Vibrio harveyi BB7X = details: 40 ng/mL; for MI (mutagenicity index): mutagenic if MI above 2.0; for Number of revertants per plate, Mean ± SD: mutagenicity
Protocol: as §2, §3, §4, §5

Vibrio harveyi BB7 = details: BB7, 40 ng/mL; for MI (mutagenicity index): mutagenic if MI above 2.0; for Number of revertants per plate, Mean ± SD: mutagenicity
Protocol: as §2, §3, §4, §5

Cunninghamella strains = experiment: Cunninghamella biotransformation assay, three strains together and blank without fungus; type: in vitro ADME; details: blank: control in the absence of fungus, 7-day incubation
Protocol: Three different strains of Cunninghamella were used: Cunninghamella echinulata NRRL 1384, Cunninghamella blakesleeana 1908 DMS, and Cunninghamella elegans 1906 DMS. The first was provided by Dr. A.J. Carnell (University of Liverpool, UK), whereas the two remaining were purchased from Deutsche Sammlung von Mikroorganismen und Zellkulturen GmbH (DMSZ, Braunschweig, Germany).
Cunninghamella strains were cultivated on solid potato dextrose agar (PDA) plates at 28 °C. After 4 days, a liquid fermentation basal medium was prepared by the addition of 6 g of D-glucose, 1.5 g of NaCl, 1.5 g of yeast extract from Saccharomyces cerevisiae, and 1.5 g of K2HPO4 to 300 mL of distilled water. Aliquots of 24.5 mL of medium were inoculated with 300 μL of suspension of fungal spores obtained after wetting colonies in PDA. The fungi were incubated with shaking until the formation of spherical clumps.
Compounds 2–4 were evaluated in this experiment. Once microorganisms formed spherical clumps in the preliminary incubation, the corresponding tested compound was added to the broth and the mixture was incubated for 7 days. Two control experiments were also performed, in the absence of compound and fungus, respectively. Biotransformation progress was monitored by TLC and by liquid chromatography electrospray ionization-tandem mass spectrometry (LC-MS/MS). Monitoring was performed at four different incubation times: 30 min, 3 days, 5 days, and 7 days.
To analyze metabolites in LC-MS/MS, an aliquot of 500 μL of filtered sample was taken and extracted with 500 μL of dichloromethane. The organic fraction was dried with sodium sulfate, filtered, and evaporated. The obtained residue was analyzed in LC-MS/MS. At the end of experiment, all the remaining medium was extracted with 25 mL of dichloromethane after separating the fungal clumps by filtration over cellulose filters.
Agilent 1100 HPLC system (Agilent Technologies, Waldbronn, Germany) equipped with a Xbridge™ C18 analytical column (2.1 × 30 mm, […]; Waters, Dublin, Ireland) was used in the chromatographic separation of LC-MS/MS analysis. […]

[3] = system: Salmonella typhimurium TA100; experiment: S. typhimurium antimutagenicity assay against NQNO; type: cell-based; details: for Number of revertants per plate, Mean ± SD: antimutagenicity, NQNO line = NQNO as a single compound
Text: as §1, §4
(§6) Procedure followed in the V. harveyi antimutagenicity assay was similar to the mutagenicity method described before. […] The results were expressed as the inhibition percentage of mutagenic effect, which was calculated with the formula: 100 − [(R 1/R 2) × 100], where R 1 is the number of revertants per plate in the presence of both mutagen and tested substance, and R 2 is the number of revertants per plate in the presence of mutagen. […] S. typhimurium antimutagenicity assay was based on similar assumptions as the V. harveyi antimutagenicity test. In this case, the chemopreventive activity was determined at two concentrations of a tested compounds and a standard mutagen, i.e., 40 and 500 ng/mL.

Vibrio harveyi BB7XM = type: cell-based; details: compound 40 ng/mL + NQNO 40 ng/mL; for Number of revertants per plate, Mean ± SD: antimutagenicity, NQNO line = NQNO as a single compound
Text: as §3, §4, §6

Vibrio harveyi BB7M [4] = experiment: Vibrio harveyi antimutagenicity assay against NQNO, BB7M; type: cell-based; details: compound 40 ng/mL + NQNO 40 ng/mL; for Number of revertants per plate, Mean ± SD: antimutagenicity, NQNO line = NQNO as a single compound
Text: as §3, §4, §6

[5] = TA100, 40 ng/mL, mutagenic if MI >2.0
[6] = TA100, 500 ng/mL (NQNO control stated as 40 ng/mL in method)
[7] = TA100, compound and NQNO 40 ng/mL
[8] = TA100, compound and NQNO 500 ng/mL

| SMILES | Number of revertants per plate, Mean ± SD ([1]; TA100, 40 ng/mL) | MI (mutagenicity index) [1, 5] | MI (mutagenicity index) [1, 6] | Number of revertants per plate, Mean ± SD [1, 6] | MI (mutagenicity index) (Vibrio harveyi BB7M [2]; mutagenic if MI above 2.0) | Number of revertants per plate, Mean ± SD (Vibrio harveyi BB7M [2]) | MI (mutagenicity index) (Vibrio harveyi BB7X) | Number of revertants per plate, Mean ± SD (Vibrio harveyi BB7X) | MI (mutagenicity index) (Vibrio harveyi BB7) | Number of revertants per plate, Mean ± SD (Vibrio harveyi BB7) | % of compound/metabolite in blank (Cunninghamella strains) [%] | % inhibition of NQNO mutagenicity [3, 7] [%] | % inhibition of NQNO mutagenicity [3, 8] [%] | Number of revertants per plate, Mean ± SD [3, 7] | Number of revertants per plate, Mean ± SD [3, 8] | Number of revertants per plate, Mean ± SD (Vibrio harveyi BB7XM) | % inhibition of NQNO mutagenicity (Vibrio harveyi BB7XM) [%] | Number of revertants per plate, Mean ± SD (Vibrio harveyi BB7M [4]) | % inhibition of NQNO mutagenicity (Vibrio harveyi BB7M [4]) [%] |
| --- | --- | --- | --- | --- | --- | --- | --- | --- | --- | --- | --- | --- | --- | --- | --- | --- | --- | --- | --- |
| COc1nc2c(c(=O)n(C)c(=O)n2C)n1CCCC(=O)NCc1ccccc1 [Compound 3, N-benzyl-4-(8-methoxy-1,3-dimethyl-2,6-dioxo-purin-7-yl)butanamide] | 53 ± 11 | 1.5 | 0.2 | 6 ± 3 | 1.3 | 35 ± 5 | 1.6 | 35 ± 4 | 1.4 | 18 ± 6 | 100.0 | 96 | 92 | 4 ± 2 | 8 ± 3 | 65 ± 7 | 15 | 48 ± 8 | 50 |
| COc1nc2c(c(=O)n(C)c(=O)n2C)n1CCCC(=O)N1CCN(c2ccccc2)CC1 [Compound 4, 8-methoxy-1,3-dimethyl-7-[4-oxo-4-(4-phenylpiperazin-1-yl)butyl]purine-2,6-dione] | 48 ± 7 | 1.3 | 0.4 | 10 ± 1 |  | 42 ± 11 | 1.2 | 27 ± 7 | 0.8 | 10 ± 4 | 100.0 | 93 | 88 | 6 ± 2 | 11 ± 3 | 70 ± 7 | 9 | 50 ± 9 | 49 |
